Measurements published in PubChem BioAssay (NCI).
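48-hour exposure; five concentrations; linearly interpolated endpoints. TGI: concentration producing complete growth inhibition.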

Experiments:
Experiment in all cases: DTP human tumour cell line panel, 48 h
MOLT-4 leukemia = tested on: MOLT-4 leukemia
SN12C renal = tested on: SN12C renal
UACC-62 melanoma = tested on: UACC-62 melanoma
A549 NSCLC = tested on: A549 NSCLC
MALME-3M melanoma = tested on: MALME-3M melanoma
SK-MEL-2 melanoma = tested on: SK-MEL-2 melanoma
K-562 leukemia = tested on: K-562 leukemia
HL-60(TB) leukemia = tested on: HL-60(TB) leukemia
M14 melanoma = tested on: M14 melanoma
HT29 colon = tested on: HT29 colon
BT-549 breast = tested on: BT-549 breast
T-47D breast = tested on: T-47D breast
PC-3 prostate = tested on: PC-3 prostate
HCT-116 colon = tested on: HCT-116 colon
MCF7 breast = tested on: MCF7 breast
SF-295 CNS = tested on: SF-295 CNS
SNB-19 CNS = tested on: SNB-19 CNS
HS 578T breast = tested on: HS 578T breast
KM12 colon = tested on: KM12 colon
UO-31 renal = tested on: UO-31 renal
SF-539 CNS = tested on: SF-539 CNS
ACHN renal = tested on: ACHN renal
IGROV1 ovarian = tested on: IGROV1 ovarian
HOP-92 NSCLC = tested on: HOP-92 NSCLC
CAKI-1 renal = tested on: CAKI-1 renal
RPMI-8226 leukemia = tested on: RPMI-8226 leukemia
NCI-H522 lung = tested on: NCI-H522 lung
NCI-H226 lung = tested on: NCI-H226 lung
CCRF-CEM leukemia = tested on: CCRF-CEM leukemia
OVCAR-8 ovarian = tested on: OVCAR-8 ovarian
MDA-MB-435 = tested on: MDA-MB-435
HCT-15 colon = tested on: HCT-15 colon
U251 CNS = tested on: U251 CNS
DU-145 prostate = tested on: DU-145 prostate
TK-10 renal = tested on: TK-10 renal
NCI/ADR-RES ovarian = tested on: NCI/ADR-RES ovarian
786-0 renal = tested on: 786-0 renal
EKVX NSCLC = tested on: EKVX NSCLC
HCC-2998 colon = tested on: HCC-2998 colon
COLO 205 colon = tested on: COLO 205 colon
OVCAR-5 ovarian = tested on: OVCAR-5 ovarian
UACC-257 melanoma = tested on: UACC-257 melanoma
OVCAR-4 ovarian = tested on: OVCAR-4 ovarian
SK-MEL-28 melanoma = tested on: SK-MEL-28 melanoma
MDA-N = tested on: MDA-N
SF-268 CNS = tested on: SF-268 CNS
NCI-H460 lung = tested on: NCI-H460 lung
SK-OV-3 ovarian = tested on: SK-OV-3 ovarian
RXF 393 renal = tested on: RXF 393 renal
HOP-62 NSCLC = tested on: HOP-62 NSCLC
SW-620 colon = tested on: SW-620 colon
SK-MEL-5 melanoma = tested on: SK-MEL-5 melanoma
NCI-H23 lung = tested on: NCI-H23 lung
OVCAR-3 ovarian = tested on: OVCAR-3 ovarian
MDA-MB-231 breast = tested on: MDA-MB-231 breast
SNB-75 CNS = tested on: SNB-75 CNS
LOX IMVI melanoma = tested on: LOX IMVI melanoma
A498 renal = tested on: A498 renal

O=S(=O)(O)c1ccc(N=Nc2ccc(N=Nc3c(O)c(S(=O)(=O)O)cc4cc(S(=O)(=O)O)ccc34)cc2)cc1
TGI (MOLT-4 leukemia): > 100 µM
TGI (SN12C renal): > 100 µM
TGI (UACC-62 melanoma): > 100 µM
TGI (A549 NSCLC): > 100 µM
TGI (MALME-3M melanoma): > 100 µM
TGI (SK-MEL-2 melanoma): > 100 µM
TGI (K-562 leukemia): > 100 µM
TGI (HL-60(TB) leukemia): > 100 µM
TGI (M14 melanoma): > 100 µM
TGI (HT29 colon): > 100 µM
TGI (BT-549 breast): > 100 µM
TGI (T-47D breast): > 100 µM
TGI (PC-3 prostate): > 100 µM
TGI (HCT-116 colon): > 100 µM
TGI (MCF7 breast): > 100 µM
TGI (SF-295 CNS): > 100 µM
TGI (SNB-19 CNS): > 100 µM
TGI (HS 578T breast): > 100 µM
TGI (KM12 colon): > 100 µM
TGI (UO-31 renal): > 100 µM
TGI (SF-539 CNS): > 100 µM
TGI (ACHN renal): > 100 µM
TGI (IGROV1 ovarian): > 100 µM
TGI (HOP-92 NSCLC): > 100 µM
TGI (CAKI-1 renal): > 100 µM
TGI (RPMI-8226 leukemia): > 100 µM
TGI (NCI-H522 lung): > 100 µM
TGI (NCI-H226 lung): > 100 µM
TGI (CCRF-CEM leukemia): > 100 µM
TGI (OVCAR-8 ovarian): > 100 µM
TGI (MDA-MB-435): > 100 µM
TGI (HCT-15 colon): > 100 µM
TGI (U251 CNS): > 100 µM
TGI (DU-145 prostate): > 100 µM
TGI (TK-10 renal): > 100 µM
TGI (NCI/ADR-RES ovarian): > 100 µM
TGI (786-0 renal): > 100 µM
TGI (EKVX NSCLC): > 100 µM
TGI (HCC-2998 colon): > 100 µM
TGI (COLO 205 colon): > 100 µM
TGI (OVCAR-5 ovarian): > 100 µM
TGI (UACC-257 melanoma): > 100 µM
TGI (OVCAR-4 ovarian): > 100 µM
TGI (SK-MEL-28 melanoma): > 100 µM
TGI (MDA-N): > 100 µM
TGI (SF-268 CNS): > 100 µM
TGI (NCI-H460 lung): > 100 µM
TGI (SK-OV-3 ovarian): > 100 µM
TGI (RXF 393 renal): > 100 µM
TGI (HOP-62 NSCLC): > 100 µM
TGI (SW-620 colon): > 100 µM
TGI (SK-MEL-5 melanoma): > 100 µM
TGI (NCI-H23 lung): > 100 µM
TGI (OVCAR-3 ovarian): > 100 µM
TGI (MDA-MB-231 breast): > 100 µM

COc1cc2oc(-c3ccc4c(c3)OCO4)c(OC)c(=O)c2c(OC)c1OC
TGI (MOLT-4 leukemia): > 100 µM
TGI (SNB-75 CNS): 94 µM
TGI (SN12C renal): > 100 µM
TGI (UACC-62 melanoma): > 100 µM
TGI (A549 NSCLC): > 100 µM
TGI (MALME-3M melanoma): > 100 µM
TGI (SK-MEL-2 melanoma): > 100 µM
TGI (K-562 leukemia): > 100 µM
TGI (HL-60(TB) leukemia): > 100 µM
TGI (M14 melanoma): > 100 µM
TGI (HT29 colon): > 100 µM
TGI (BT-549 breast): > 100 µM
TGI (T-47D breast): > 100 µM
TGI (PC-3 prostate): > 100 µM
TGI (HCT-116 colon): > 100 µM
TGI (MCF7 breast): > 100 µM
TGI (SF-295 CNS): > 100 µM
TGI (SNB-19 CNS): > 100 µM
TGI (LOX IMVI melanoma): > 100 µM
TGI (HS 578T breast): > 100 µM
TGI (KM12 colon): > 100 µM
TGI (UO-31 renal): > 100 µM
TGI (SF-539 CNS): > 100 µM
TGI (ACHN renal): > 100 µM
TGI (IGROV1 ovarian): > 100 µM
TGI (HOP-92 NSCLC): 39.8 µM
TGI (CAKI-1 renal): > 100 µM
TGI (NCI-H522 lung): > 100 µM
TGI (NCI-H226 lung): > 100 µM
TGI (CCRF-CEM leukemia): > 100 µM
TGI (OVCAR-8 ovarian): > 100 µM
TGI (MDA-MB-435): > 100 µM
TGI (HCT-15 colon): > 100 µM
TGI (U251 CNS): > 100 µM
TGI (DU-145 prostate): > 100 µM
TGI (TK-10 renal): > 100 µM
TGI (NCI/ADR-RES ovarian): > 100 µM
TGI (786-0 renal): > 100 µM
TGI (EKVX NSCLC): > 100 µM
TGI (HCC-2998 colon): > 100 µM
TGI (COLO 205 colon): > 100 µM
TGI (OVCAR-5 ovarian): > 100 µM
TGI (UACC-257 melanoma): > 100 µM
TGI (OVCAR-4 ovarian): > 100 µM
TGI (SK-MEL-28 melanoma): > 100 µM
TGI (MDA-N): > 100 µM
TGI (SF-268 CNS): 99.5 µM
TGI (NCI-H460 lung): > 100 µM
TGI (SK-OV-3 ovarian): > 100 µM
TGI (RXF 393 renal): > 100 µM
TGI (A498 renal): > 100 µM
TGI (HOP-62 NSCLC): 93 µM
TGI (SW-620 colon): > 100 µM
TGI (SK-MEL-5 melanoma): > 100 µM
TGI (NCI-H23 lung): > 100 µM
TGI (OVCAR-3 ovarian): > 100 µM
TGI (MDA-MB-231 breast): > 100 µM
